Measurements: patent US9487483B2, “Complement pathway modulators and uses thereof” (priority 2012, dated 2016)

Target: Recombinant human factor D (Homo sapiens (Human), UniProt P00746)
Assay: biochemical
Format: biochemical
Details: Factor D inhibition data using Method 1; substrate Z-Lys-thiobenzyl, fluorescence readout; read-out: IC50
Protocol: Human Complement Factor D Assay: Method 1
Recombinant human factor D (expressed in E. coli and purified using standard methods) at 10 nM concentration is incubated with test compound at various concentrations for 1 hour at room temperature in 0.1 M Hepes buffer, pH 7.5, containing 1 mM MgCl2, 1 M NaCl and 0.05% CHAPS. […] IC50 values are calculated from percentage of inhibition of complement factor D-activity as a function of test compound concentration.

Sequence of Recombinant human factor D (P00746 26-253): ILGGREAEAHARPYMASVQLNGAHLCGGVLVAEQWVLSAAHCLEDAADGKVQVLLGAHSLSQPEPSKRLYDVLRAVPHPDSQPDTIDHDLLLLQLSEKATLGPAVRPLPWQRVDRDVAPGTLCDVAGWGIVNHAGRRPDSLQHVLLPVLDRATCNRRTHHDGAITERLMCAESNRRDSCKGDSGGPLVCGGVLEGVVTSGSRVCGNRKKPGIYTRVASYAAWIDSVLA

**Q.** How did the IC50 turn out when NC(=O)n1cc(NC(=O)N2[C@@H]3C[C@@H]3C[C@H]2C(=O)N[C@@H]2CCC[C@H](C(F)(F)F)C2)c2ccccc21 [Example 26, (1R,3S,5R)-2-Aza-bicyclo[3.1.0]hexane-2,3-dicarboxylic acid 2-[(1-carbamoyl-1H-indol-3-yl)-amide] 3-[((1R,3S)-3-trifluoromethyl-cyclohexyl)-amide]] was run?
**A.** 26 nM

**Q.** How did the IC50 turn out when CC1(C)CCC[C@@H](NC(=O)[C@@H]2C[C@@H](F)CN2C(=O)Nc2cn(C(N)=O)c3ccccc23)C1 [Example 27, (2S,4R)-4-Fluoro-pyrrolidine-1,2-dicarboxylic acid 1-[(1-carbamoyl-1H-indol-3-yl)-amide] 2-[((R)-3,3-dimethyl-cyclohexyl)-amide]] was run?
**A.** 40 nM

**Q.** How did the IC50 turn out when NC(=O)c1nn(CC(=O)N2[C@@H]3C[C@@H]3C[C@H]2C(=O)NC2CCCC(O)(C(F)(F)F)C2)c2ccccc12 (stereo partly drawn) [Example 31, 1-{2-[(1R,3S,5R)-3-(3-Hydroxy-3-trifluoromethyl-cyclohexylcarbamoyl)-2-aza-bicyclo[3.1.0]hex-2-yl]-2-oxo-ethyl}-1H-indazole-3-carboxylic acid amide] was run?
**A.** 900 nM

**Q.** Which IC50 does the source give for CC(=O)c1nn(CC(=O)N2[C@@H]3C[C@@H]3C[C@H]2C(=O)NC2CCCC(OC(F)(F)F)C2)c2ccccc12 (stereo partly drawn) [Example 32, (1R,3S,5R)-2-[2-(3-Acetyl-indazol-1-yl)-acetyl]-2-aza-bicyclo[3.1.0]hexane-3-carboxylic acid (trans-3-trifluoromethoxy-cyclohexyl)-amide] here?
**A.** 63 nM

**Q.** For NC(=O)c1nn(CC(=O)N2[C@@H]3C[C@@H]3C[C@H]2C(=O)NC2CCCC(O)(C(F)(F)F)C2)c2cnccc12 (stereo partly drawn) [Example 34, 1-{2-[(1R,3S,5R)-3-(3-Hydroxy-3-trifluoromethyl-cyclohexylcarbamoyl)-2-aza-bicyclo[3.1.0]hex-2-yl]-2-oxo-ethyl}-1H-pyrazolo[3,4-c]pyridine-3-carboxylic acid amide], which IC50 is on record?
**A.** 728 nM

**Q.** How did the IC50 turn out when NC(=O)c1nn(CC(=O)N2[C@@H]3C[C@@H]3C[C@H]2C(=O)NC2CCCCC2(F)F)c2cnccc12 (stereo partly drawn) [Example 35, 1-{2-[(1R,3S,5R)-3-(2,2-Difluoro-cyclohexylcarbamoyl)-2-aza-bicyclo[3.1.0]hex-2-yl]-2-oxo-ethyl}-1H-pyrazolo[3,4-c]pyridine-3-carboxylic acid amide] was run?
**A.** 774 nM

**Q.** For CC(=O)c1nn(CC(=O)N2[C@@H]3C[C@@H]3C[C@H]2C(=O)NC2CCCC=C2F)c2ccc(OCc3ncccn3)cc12 (stereo partly drawn) [Example 38, (1R,3S,5R)-2-{2-[3-acetyl-5-(pyrimidin-2-ylmethoxy)-indazol-1-yl]-acetyl}-2-aza-bicyclo[3.1.0]hexane-3-carboxylic acid (2-fluoro-cyclohex-2-enyl)-amide], which IC50 is on record?
**A.** 282 nM

**Q.** Which IC50 does the source give for CO[C@H]1CCC[C@@H](NC(=O)[C@@H]2C[C@H]3C[C@H]3N2C(=O)Cn2nc(C(N)=O)c3ccccc32)C1 [Example 46, 1-{2-[(1R,3S,5R)-3-((1R,3S)-3-Methoxy-cyclohexylcarbamoyl)-2-aza-bicyclo[3.1.0]hex-2-yl]-2-oxo-ethyl}-1H-indazole-3-carboxylic acid amide] here?
**A.** 478 nM

**Q.** How did the IC50 turn out when NC(=O)c1nn(CC(=O)N2[C@@H]3C[C@@H]3C[C@H]2C(=O)N[C@@H]2CCC[C@H](C(F)(F)F)C2)c2ccccc12 [Example 49, 1-{2-Oxo-2-[(1R,3S,5R)-3-((1R,3S)-3-trifluoromethyl-cyclohexylcarbamoyl)-2-aza-bicyclo[3.1.0]hex-2-yl]ethyl}-1H-indazole-3-carboxylic acid amide] was run?
**A.** 29 nM

**Q.** How did the IC50 turn out when Cc1cc2c(C(N)=O)nn(CC(=O)N3[C@@H]4C[C@@H]4C[C@H]3C(=O)N[C@@H]3CCC[C@H](C(F)(F)F)C3)c2cn1 [Example 50, 5-Methyl-1-{2-oxo-2-[(1R,3S,5R)-3-((1R,3S)-3-trifluoromethyl-cyclohexylcarbamoyl)-2-aza-bicyclo[3.1.0]hex-2-yl]ethyl}-1H-pyrazolo[3,4-c]pyridine-3-carboxylic acid amide] was run?
**A.** 118 nM

**Q.** Which IC50 does the source give for C[C@H]1CCC[C@@H](NC(=O)[C@@H]2C[C@H]3C[C@H]3N2C(=O)Cn2nc(C(N)=O)c3ccncc32)C1 [Example 51, 1-{2-[(1R,3S,5R)-3-((1R,3S)-3-Methyl-cyclohexylcarbamoyl)-2-aza-bicyclo[3.1.0]hex-2-yl]-2-oxo-ethyl}-1H-pyrazolo[3,4-c]pyridine-3-carboxylic acid amide] here?
**A.** 226 nM

**Q.** NC(=O)c1nn(CC(=O)N2[C@@H]3C[C@@H]3C[C@H]2C(=O)NC2CCC(F)(F)C2)c2ccccc12 (stereo partly drawn) [Example 52, 1-{2-[(1R,3S,5R)-3-(3,3-Difluoro-cyclopentylcarbamoyl)-2-aza-bicyclo[3.1.0]hex-2-yl]-2-oxo-ethyl}-1H-indazole-3-carboxylic acid amide] was tested. Which IC50 did it give?
**A.** 999 nM

**Q.** How did the IC50 turn out when CC1(C)CCC[C@H](NC(=O)[C@@H]2C[C@H]3C[C@H]3N2C(=O)Cn2nc(C(N)=O)c3ccccc32)C1 [Example 53, 1-{2-[(1R,3S,5R)-3-((S)-3,3-Dimethyl-cyclohexylcarbamoyl)-2-aza-bicyclo[3.1.0]hex-2-yl]-2-oxo-ethyl}-1H-indazole-3-carboxylic acid amide] was run?
**A.** 905 nM

**Q.** Which IC50 does the source give for CC1(C)CCC[C@@H](NC(=O)[C@@H]2C[C@H]3C[C@H]3N2C(=O)Cn2nc(C(N)=O)c3ccccc32)C1 [Example 54, 1-{2-[(1R,3S,5R)-3-((R)-3,3-Dimethyl-cyclohexylcarbamoyl)-2-aza-bicyclo[3.1.0]hex-2-yl]-2-oxo-ethyl}-1H-indazole-3-carboxylic acid amide] here?
**A.** 57 nM

**Q.** For CC1(C)CCC[C@H](NC(=O)[C@@H]2C[C@H]3C[C@H]3N2C(=O)Cn2nc(C(N)=O)c3ccncc32)C1 [Example 55, 1-{2-[(1R,3S,5R)-3-((S)-3,3-Dimethyl-cyclohexylcarbamoyl)-2-aza-bicyclo[3.1.0]hex-2-yl]-2-oxo-ethyl}-1H-pyrazolo[3,4-c]pyridine-3-carboxylic acid amide], which IC50 is on record?
**A.** 2210 nM

**Q.** How did the IC50 turn out when CC1(C)CCC[C@@H](NC(=O)[C@@H]2C[C@H]3C[C@H]3N2C(=O)Cn2nc(C(N)=O)c3ccncc32)C1 [Example 56, 1-{2-[(1R,3S,5R)-3-((R)-3,3-Dimethyl-cyclohexylcarbamoyl)-2-aza-bicyclo[3.1.0]hex-2-yl]-2-oxo-ethyl}-1H-pyrazolo[3,4-c]pyridine-3-carboxylic acid amide] was run?
**A.** 37 nM

**Q.** Cc1ccc2c(c1)c(C(N)=O)nn2CC(=O)N1[C@@H]2C[C@@H]2C[C@H]1C(=O)N[C@@H]1CCCC(C)(C)C1 [Example 59, 1-{2-[(1R,3S,5R)-3-((R)-3,3-Dimethyl-cyclohexylcarbamoyl)-2-aza-bicyclo[3.1.0]hex-2-yl]-2-oxo-ethyl}-5-methyl-1H-indazole-3-carboxylic acid amide] was tested. Which IC50 did it give?
**A.** 43 nM

Same assay, conditions: read-out: IC50

**Q.** With Cc1cc2c(C(N)=O)nn(CC(=O)N3[C@@H]4C[C@@H]4C[C@H]3C(=O)NN3CCCC(C)(C)C3)c2cn1 [Example 29, 1{2-[(1R,3S,5R)-3-(3,3-Dimethyl-pipendin-1-ylcarbamoyl)-2-aza-bicyclo[3.1.0]hex-2-yl]-2-oxo-ethyl}-5-methyl-1H-pyrazolo[3,4-c] pyridine-3-carboxylic acid amide] as the compound, how does the IC50 read?
**A.** 28 nM

**Q.** For CC(=O)c1nn(CC(=O)N2[C@@H]3C[C@@H]3C[C@H]2C(=O)NN2CCCC(C)(C)C2)c2ccc(OCc3ncccn3)cc12 [Example 30, (1R,3S,5R)-2-{2-[3-Acetyl-5-(pyrimidin-2-ylmethoxy)-indazol-1-yl]-acetyl}-2-aza-bicyclo[3.1.0] hexane-3-carboxylic acid (3,3-dimethyl-piperidin-1-yl)-amide], which IC50 is on record?
**A.** 10 nM

**Q.** For NC(=O)c1nn(CC(=O)N2[C@@H]3C[C@@H]3C[C@H]2C(=O)NC2CCCC(OC(F)(F)F)C2)c2ccccc12 (stereo partly drawn) [Example 33, 1-{2-Oxo-2-[(1R,3S,5R)-3-(trans-3-trifluoromethoxy-cyclohexylcarbamoyl)-2-aza-bicyclo[3.1.0]hex-2-yl]ethyl}-1H-indazole-3-carboxylic acid amide], which IC50 is on record?
**A.** 121 nM

**Q.** With NC(=O)c1nn(CC(=O)N2[C@@H]3C[C@@H]3C[C@H]2C(=O)N[C@@H]2CCC[C@H](C(F)(F)F)C2)c2cnccc12 [Example 41, 1-{2-Oxo-2-[(1R,3S,5R)-3-((1R,3S)-3-trifluoromethyl-cyclohexylcarbamoyl)-2-aza-bicyclo[3.1.0]hex-2-yl]-ethyl}-1H-pyrazolo[3,4-c]pyridine-3-carboxylic acid amide] as the compound, how does the IC50 read?
**A.** 114 nM

**Q.** How did the IC50 turn out when CO[C@H]1CCC[C@H](NC(=O)[C@@H]2C[C@H]3C[C@H]3N2C(=O)Cn2nc(C(C)=O)c3ccccc32)C1 [Example 42, (1R,3S,5R)-2-[2-(3-Acetyl-indazol-1-yl)-acetyl]-2-aza-bicyclo[3.1.0]hexane-3-carboxylic acid ((1S,3S)-3-methoxy-cyclohexyl)-amide] was run?
**A.** 1070 nM

**Q.** For CO[C@@H]1CCC[C@@H](NC(=O)[C@@H]2C[C@H]3C[C@H]3N2C(=O)Cn2nc(C(C)=O)c3ccccc32)C1 [Example 43, (1R,3S,5R)-2-[2-(3-Acetyl-indazol-1-yl)-acetyl]-2-aza-bicyclo[3.1.0]hexane-3-carboxylic acid ((1R,3R)-3-methoxy-cyclohexyl)-amide], which IC50 is on record?
**A.** 323 nM

**Q.** With CO[C@@H]1CCC[C@H](NC(=O)[C@@H]2C[C@H]3C[C@H]3N2C(=O)Cn2nc(C(C)=O)c3ccccc32)C1 [Example 44, (1R,3S,5R)-2-[2-(3-Acetyl-indazol-1-yl)-acetyl]-2-aza-bicyclo[3.1.0]hexane-3-carboxylic acid ((1S,3R)-3-methoxy-cyclohexyl)-amide] as the compound, how does the IC50 read?
**A.** 1880 nM

**Q.** Which IC50 does the source give for CO[C@H]1CCC[C@@H](NC(=O)[C@@H]2C[C@H]3C[C@H]3N2C(=O)Cn2nc(C(C)=O)c3ccccc32)C1 [Example 45, (1R,3S,5R)-2-[2-(3-Acetyl-indazol-1-yl)-acetyl]-2-aza-bicyclo[3.1.0]hexane-3-carboxylic acid ((1R,3S)-3-methoxy-cyclohexyl)-amide] here?
**A.** 405 nM

**Q.** For C[C@H]1CCC[C@@H](NC(=O)[C@@H]2C[C@H]3C[C@H]3N2C(=O)Cn2nc(C(N)=O)c3ccccc32)C1 [Example 47, 1-{2-[(1R,3S,5R)-3-((1R,3S)-3-Methyl-cyclohexylcarbamoyl)-2-aza-bicyclo[3.1.0]hex-2-yl]-2-oxo-ethyl}-1H-indazole-3-carboxylic acid amide], which IC50 is on record?
**A.** 91 nM

**Q.** How did the IC50 turn out when C[C@@H]1CCC[C@H](NC(=O)[C@@H]2C[C@H]3C[C@H]3N2C(=O)Cn2nc(C(N)=O)c3ccccc32)C1 [Example 48, 1-{2-[(1R,3S,5R)-3-((1S,3R)-3-Methyl-cyclohexylcarbamoyl)-2-aza-bicyclo[3.1.0]hex-2-yl]-2-oxo-ethyl}-1H-indazole-3-carboxylic acid amide] was run?
**A.** 1320 nM
